Literature values, collected in publication PMC5082644 (Molecular Vision, 2016).

Test system: complement activation / C5b-9n (MAC) deposition in human fetal RPE cell cultures
Details: among peptides with polar dipeptides added at the N-terminus

For “Ac-RSI[CV(meW)QDWGAHRC]T-NH2 (disulfide)”, the “Efficacy in the human RPE cell-based assay” value is given as “most efficacious”.
